In US20250304560A1, “MODULATORS OF NLRP3 INFLAMMASOME AND RELATED PRODUCTS AND METHODS” (Neumora Therapeutics, Inc., priority 2022, published 2025):
Read-outs that look alike come from different tables or passages of the source.

What was measured:
NLRP3 inflammasome = NLRP3 inflammasome (Homo sapiens, UniProt Q96P20); test: NLRP3 inflammasome activation in THP1 macrophages, IL-1β AlphaLISA
hERG channels = target: T1, hERG channels (Homo sapiens, UniProt Q12809); test: hERG assay, whole-cell patch-clamp in CHO-hERG cells; format: cell-based; conditions: for IC50: whole-cell patch-clamp, CHO-hERG cells
T1 construct: host or cells: CHO-hERG cells
Procedure: CHO-hERG cells (Sophion Biosciences (Ballerup, Denmark), subcultured and frozen in WuXi AppTec (Suzhou) Co., Ltd.), stored in liquid nitrogen, were tested and determined to be free from mycoplasma contamination. Cells were not used after the 30th passage. CHO-hERG cells were cultured in a humidified incubator of 5% CO2 (4% to 8%) in air at 37° C. (±2° C.). The cells were recovered with recovery medium (F12 medium with 10% fetal bovine serum), subcultured in complete medium (F12 medium, supplemented with 10% fetal bovine serum, 1% Geneticin® selective antibiotic (G418), 89 μg/mL Hygromycin B (HB)), and the culture medium was switched to recovery medium in the last subculture before patch-clamp experiment.
To determine the compounds' IC50, select compounds (“test articles”) were dissolved into DMSO, and then diluted with ECS to get working solutions. Five concentrations of 0.3, 1, 3, 10, and 30 μM were tested. Two replicate cells for each concentration were tested.
Exponentially growing CHO-hERG cells were collected and suspended in extracellular solution for use. The hERG current was recorded at physiological temperature (33.0° C. to 37.0° C.) using whole-cell patch-clamp techniques. Output signals from the patch-clamp amplifier were digitized and low-pass filtered at 2.9 KHz. The recording was controlled with Patchmaster Pro software. The recording chamber with seeded cells was mounted on an inverted microscope stage. A cell in the recording chamber was randomly selected for testing. The cell was continuously perfused from the perfusion system. A micropipette filled with ICS was used as recording electrode in the manual patch-clamp study. The micropipette was prepared on the day of the patch-clamp experiment using glass capillaries (BF150-117-10, SUTTER INSTRUMENT USA). The pipette resistance (Rp) was within 2 to 5 MΩ with ICS filled. From the holding potential of-80 mV, the voltage was increased to +60 mV for 850 ms to open the hERG channels. After that, the voltage was decreased to-50 mV for 1275 ms, causing a “rebound” or tail current, the peak tail current was measured and collected for data analysis. Finally, the voltage was decreased to the holding potential (−80 mV). This command voltage protocol was repeated every 15 s continuously during the test article application.
During the initial recording period with vehicle control working solution, the peak tail current amplitude was monitored until it had been stable for at least 3 sweeps. Cells were then perfused with test article/positive control working solutions until the peak tail current amplitude reached steady state. Steady state was considered reached when three consecutive super-imposable peak tail currents were collected. At this point, cells were once again perfused with next concentration of test article. One or more test articles/positive control or different concentrations of the same test article were tested on each cell with vehicle control washout until the current amplitude returned to values at least 80% of those measured before application of test article. […] At least 2 replicate cells for each concentration were tested. […] (Milnes, J. T., et al.)
Seal criteria: When acquiring whole-cell configuration, a holding potential (e.g.,-80 mV) was applied while membrane parameters were collected (Cm, Rm and Rs). A “good” whole-cell recording was generally defined as: series resistance (Rs) was less than 10 MΩ; membrane resistance (Rm) was more than 500 MΩ and membrane capacitance (Cm) was less than 100 pF. Current amplitude: The peak current amplitude must be between 400 pA and 5000 pA before the test article/positive control application; otherwise the cell was discarded. Leak criteria: At-80 mV holding potential, the absolute leak current value must be less than 200 pA. The amplitude of current was adjusted with leak current at-80 mV. The sweeps which absolute leak current value was more than 200 pA was not used in data analysis.

IL-6 = IL-6 AlphaLISA in LPS-primed THP1 macrophages
[1] = IL-1β Activity (nM), THP1 macrophages, PMA, LPS priming, nigericin 6.7 uM activation
[2] = Homo sapiens, THP-1, read-out: IL-6 Activity (μM), THP1 macrophages, PMA, LPS priming, nigericin 6.7 uM
[3] = Homo sapiens, THP-1, read-out: IL-6 Activity (μM)

T1 sequence (Q12809 whole entry): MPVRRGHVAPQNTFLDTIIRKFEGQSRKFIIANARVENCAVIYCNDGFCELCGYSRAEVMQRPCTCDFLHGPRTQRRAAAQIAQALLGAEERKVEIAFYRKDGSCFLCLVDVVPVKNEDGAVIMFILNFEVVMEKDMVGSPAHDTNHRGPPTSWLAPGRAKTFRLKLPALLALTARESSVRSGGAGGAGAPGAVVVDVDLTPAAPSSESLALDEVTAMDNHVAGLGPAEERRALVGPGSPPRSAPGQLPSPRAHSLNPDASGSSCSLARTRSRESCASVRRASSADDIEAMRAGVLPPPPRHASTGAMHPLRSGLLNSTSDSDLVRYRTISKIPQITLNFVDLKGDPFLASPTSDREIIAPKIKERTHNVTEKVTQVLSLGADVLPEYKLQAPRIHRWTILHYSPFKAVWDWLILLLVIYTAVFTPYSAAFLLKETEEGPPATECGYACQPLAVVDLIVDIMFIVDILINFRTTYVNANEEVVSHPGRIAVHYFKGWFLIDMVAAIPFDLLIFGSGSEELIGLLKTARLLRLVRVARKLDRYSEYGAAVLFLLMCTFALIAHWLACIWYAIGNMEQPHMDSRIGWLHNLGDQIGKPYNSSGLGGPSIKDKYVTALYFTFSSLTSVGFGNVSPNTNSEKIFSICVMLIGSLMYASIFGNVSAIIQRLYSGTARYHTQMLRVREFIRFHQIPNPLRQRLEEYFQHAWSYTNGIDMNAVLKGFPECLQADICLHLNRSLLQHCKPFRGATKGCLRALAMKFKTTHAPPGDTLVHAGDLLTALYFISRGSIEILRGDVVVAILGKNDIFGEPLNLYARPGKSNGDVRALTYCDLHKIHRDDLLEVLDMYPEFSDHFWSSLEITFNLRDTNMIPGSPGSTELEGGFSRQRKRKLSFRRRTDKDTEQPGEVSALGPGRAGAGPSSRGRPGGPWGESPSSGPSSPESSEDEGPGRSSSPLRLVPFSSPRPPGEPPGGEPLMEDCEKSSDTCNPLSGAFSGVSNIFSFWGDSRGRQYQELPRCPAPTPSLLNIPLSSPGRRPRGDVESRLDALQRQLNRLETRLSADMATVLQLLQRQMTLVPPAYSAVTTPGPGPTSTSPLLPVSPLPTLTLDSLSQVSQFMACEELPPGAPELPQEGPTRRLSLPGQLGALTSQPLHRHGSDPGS
NLRP3 inflammasome, sequence (Q96P20 whole entry): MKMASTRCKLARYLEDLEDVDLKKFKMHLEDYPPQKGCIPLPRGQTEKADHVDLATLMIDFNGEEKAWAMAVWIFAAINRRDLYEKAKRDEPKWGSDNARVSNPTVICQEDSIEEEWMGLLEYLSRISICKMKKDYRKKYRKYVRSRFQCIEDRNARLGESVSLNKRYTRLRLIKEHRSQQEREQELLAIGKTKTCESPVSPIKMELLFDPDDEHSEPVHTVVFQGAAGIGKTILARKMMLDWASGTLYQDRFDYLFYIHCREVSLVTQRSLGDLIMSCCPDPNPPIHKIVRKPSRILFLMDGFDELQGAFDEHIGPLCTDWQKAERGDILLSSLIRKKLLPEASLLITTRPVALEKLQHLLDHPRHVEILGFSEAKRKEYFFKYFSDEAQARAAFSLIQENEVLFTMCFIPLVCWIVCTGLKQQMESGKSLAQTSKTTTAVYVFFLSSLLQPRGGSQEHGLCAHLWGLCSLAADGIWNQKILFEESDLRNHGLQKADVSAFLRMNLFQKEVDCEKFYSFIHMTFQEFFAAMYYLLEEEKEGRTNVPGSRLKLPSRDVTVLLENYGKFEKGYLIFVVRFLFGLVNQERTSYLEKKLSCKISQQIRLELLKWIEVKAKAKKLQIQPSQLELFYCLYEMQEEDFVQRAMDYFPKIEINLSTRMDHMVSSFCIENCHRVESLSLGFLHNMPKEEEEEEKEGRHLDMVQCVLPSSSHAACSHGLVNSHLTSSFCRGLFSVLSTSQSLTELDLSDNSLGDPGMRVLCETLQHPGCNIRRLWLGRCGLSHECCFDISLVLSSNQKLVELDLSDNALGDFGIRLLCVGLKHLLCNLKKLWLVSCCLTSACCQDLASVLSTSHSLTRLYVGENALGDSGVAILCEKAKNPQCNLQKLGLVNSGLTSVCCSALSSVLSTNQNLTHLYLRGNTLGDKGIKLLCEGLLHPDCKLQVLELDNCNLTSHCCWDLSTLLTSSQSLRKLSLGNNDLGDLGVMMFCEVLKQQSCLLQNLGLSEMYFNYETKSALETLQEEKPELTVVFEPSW

Row | SMILES | IC50 (NLRP3 inflammasome; [1]) | IC50 (IL-6; [2]) | IC50 (NLRP3 inflammasome) | IC50 (IL-6; [3]) | other results
1 | CCc1ccc(-c2nnc(N[C@@H]3CCCN(C)C3)cc2C)c(O)c1 [compound 15] | < 1 nM | – | – | – | IL-1ß activity (in words) (NLRP3 inflammasome): potent; IC50 (NLRP3 inflammasome; IL-1β Activity, THP1 macrophages, Table 11 comparison): < 1 nM; hERG inhibition (in words) (hERG channels): high; IC50 (hERG channels; 33.0-37.0 °C, Table 10): 3000 to 10000 nM; IC50 (hERG channels; Table 11 comparison): 3000 to 10000 nM
2 | Cc1cc(-c2cccc(C)c2O)nnc1N[C@@H]1CCCN(C)C1 [compound 81] | 1 to 10 nM | > 10 µM | – | – | –
3 | Cc1cc(NC[C@@H]2COCCO2)nnc1-c1ccccc1O [compound 120] | – | – | > 1000 nM | > 10 µM | –
4 | Cc1cc(-c2ccc(C#N)cc2O)nnc1O[C@@H]1CCCN(C)C1 [compound 101] | – | – | > 1000 nM | > 10 µM | –
5 | Cc1cc(O[C@@H]2CCCN(C)C2)nnc1-c1ccc(C#N)cc1O [compound 100] | – | – | 100 to 500 nM | > 10 µM | –
6 | Cc1cccc(-c2ccc(N(C)[C@@H]3CCCN(C)C3)nn2)c1O [compound 18] | > 1000 nM | 5 to 10 µM | – | – | –
7 | Cc1c(F)ccc(-c2ccc(N(C)[C@@H]3CCCN(C)C3)nn2)c1O [compound 24] | 10 to 100 nM | 1 to 5 µM | – | – | –
8 | CN1CCC[C@@H](N(C)c2ccc(-c3ccccc3O)nn2)C1 [compound 17] | > 1000 nM | > 10 µM | – | – | –
9 | Cc1cc(-c2nnc(N[C@@H]3CCCN(C)C3)cc2C)c(O)cc1F [compound 65] | 1 to 10 nM | > 10 µM | – | – | –
10 | Cc1cc(O[C@@H]2CCCN(C)C2)nnc1-c1ccccc1O [compound 71] | – | – | 10 to 100 nM | > 10 µM | –
11 | CN1CCC[C@@H](Nc2cc(F)c(-c3ccccc3O)nn2)C1 [compound 52] | 1 to 10 nM | > 10 µM | – | – | –
12 | Cc1cc(N[C@H]2CN(C)CC(F)(F)C2)nnc1-c1ccccc1O [compound 40] | 500 to 1000 nM | > 10 µM | – | – | –
13 | Cc1cc(N[C@@H]2CCCN(C)C2)nnc1-c1ncc(C(F)(F)F)cc1O [compound 107] | – | – | < 1 nM | > 10 µM | –
14 | Cc1cc(NC[C@@H]2CCCN2C)nnc1-c1ccccc1O [compound 121] | – | – | > 1000 nM | > 10 µM | –
15 | Cc1cc(N(C)[C@@H]2CCCN(C)C2)nnc1-c1ccc(C#N)cc1O [compound 90] | < 1 nM | > 10 µM | – | – | –
16 | Cc1cc(N(C)[C@@H]2CCCN(C)C2)nnc1-c1ccccc1O [compound 23] | 10 to 100 nM | > 10 µM | – | – | –
17 | CN1CC[C@@H](N(C)c2ccc(-c3ccc(F)cc3O)nn2)C1 [compound 32] | – | – | > 1000 nM | > 10 µM | –
18 | Cc1cc(-c2ccc(F)c(C)c2O)nnc1N[C@@H]1CCCN(C)C1 [compound 80] | 1 to 10 nM | 5 to 10 µM | – | – | –
19 | Cc1cc(NCC2CCOCC2)nnc1-c1ccccc1O [compound 115] | – | – | > 1000 nM | > 10 µM | –
20 | CN1CC[C@@H](Nc2ccc(-c3ccccc3O)nn2)C1 [compound 31] | > 1000 nM | > 10 µM | – | – | –
21 | Cc1ccc(O)c(-c2ccc(N[C@@H]3CCCN(C)C3)nn2)c1 [compound 4] | 100 to 500 nM | > 10 µM | – | – | –
22 | Cc1cc(N[C@@H]2C[C@H](F)CN(C)C2)nnc1-c1ccc(F)cc1O [compound 47] | 10 to 100 nM | > 10 µM | – | – | –

Row | SMILES | IC50 (NLRP3 inflammasome; [1]) | IC50 (IL-6; [2]) | IC50 (NLRP3 inflammasome) | IC50 (IL-6; [3]) | other results
23 | Cc1cc(N2CCC[C@@H](N(C)C)C2)nnc1-c1ccc(C#N)cc1O [compound 112] | – | – | > 1000 nM | > 10 µM | –
24 | Cc1cc(F)cc(O)c1-c1ccc(N[C@@H]2CCCN(C)C2)nn1 [compound 6] | < 1 nM | 5 to 10 µM | – | – | –
25 | Cc1cc(N[C@H]2CN(C)CC(F)(F)C2)nnc1-c1ccc(F)cc1O [compound 45] | 100 to 500 nM | > 10 µM | – | – | –
26 | Cc1cc(NC[C@@H]2CCCO2)nnc1-c1ccccc1O [compound 117] | – | – | 500 to 1000 nM | > 10 µM | –
27 | COC(C)(C)CNc1cc(C)c(-c2ccccc2O)nn1 [compound 124] | – | – | > 1000 nM | > 10 µM | –
28 | Cc1cc(-c2ccc(C(=O)O)cc2O)nnc1N[C@@H]1CCCN(C)C1 [compound 93] | > 1000 nM | > 10 µM | – | – | –
29 | Cc1cc(N(C)[C@@H]2CCN(C)C2)nnc1-c1ccc(C(F)(F)F)cc1O [compound 97] | – | – | 10 to 100 nM | > 10 µM | –
30 | Cc1cc(O[C@@H]2CCCN(C)C2)nnc1-c1ccc(C(F)(F)F)cc1O [compound 73, (R)-2-(4-methyl-6-((1-methylpiperidin-3-yl)oxy)pyridazin-3-yl)-5-(trifluoromethyl) phenol] | – | – | > 1000 nM | > 10 µM | –
31 | CCc1ccc(-c2ccc(N[C@@H]3CCCN(C)C3)nn2)c(O)c1 [compound 14] | 10 to 100 nM | > 10 µM | – | – | –
32 | Cc1cc(-c2ccccc2O)nnc1O[C@@H]1CCCN(C)C1 [compound 99] | – | – | > 1000 nM | > 10 µM | –
33 | Cc1cc(-c2ccc(F)cc2O)nnc1N[C@@H]1CCCN(CCF)C1 [compound 86] | 500 to 1000 nM | > 10 µM | – | – | –
34 | Cc1cc(-c2ccc(C#N)cc2O)nnc1N[C@@H]1CCCN(C)C1 [compound 91] | 10 to 100 nM | > 10 µM | – | – | –
35 | Cc1cc(N[C@@H]2CCCN(C)C2)nnc1-c1ncc(F)cc1O [compound 109] | – | – | 100 to 500 nM | 5 to 10 µM | –
36 | Cc1cc(N(C)[C@@H]2CCCN(C)C2)nnc1-c1ccc(F)cc1O [compound 26] | 1 to 10 nM | > 10 µM | – | – | –
37 | Cc1cc(N[C@@H]2CCCN(C)C2)nnc1-c1ncccc1O [compound 108] | – | – | 100 to 500 nM | > 10 µM | –
38 | Cc1cc(C[C@H]2CCCN(C)C2)nnc1-c1ccc(C(F)(F)F)cc1O [compound 104] | – | – | 1 to 10 nM | > 10 µM | –
39 | Cc1cc(N[C@@H]2CCN(C)C2)nnc1-c1ccc(C(F)(F)F)cc1O [compound 96] | 1 to 10 nM | > 10 µM | – | – | –
40 | Cc1cc(CC2CCCN(C)C2)nnc1-c1ccc(C#N)cc1O (stereo not drawn) [compound 102] | – | – | 100 to 500 nM | > 10 µM | –
41 | Cc1cc(NC[C@H]2CCCN2C)nnc1-c1ccccc1O [compound 122] | – | – | > 1000 nM | > 10 µM | –
42 | Cc1cc(N[C@@H]2CCCN(C)C2)nnc1-c1ccc(F)c(C)c1O [compound 38] | 1 to 10 nM | – | – | – | IC50 (IL-6; read-out: IL-6 Activity, THP1 macrophages, PMA, LPS priming, nigericin 6.7 uM): 1 to 5 µM
43 | Cc1cc(N[C@H]2CN(C)CC[C@H]2F)nnc1-c1ccccc1O [compound 50] | 10 to 100 nM | > 10 µM | – | – | –
